IC50 data for 28 compounds are collected here from patent publication US20160257676A1, “Aminoisoquinoline Derivatives as Protein Kinase Inhibitors” (ETERNITY BIOSCIENCE INC., priority 2012, published 2016).

In one test the target is BRAF^V600E (Homo sapiens, UniProt P15056, V600E). Nature of the test: BRAF^V600E enzymatic activity assay (LanthaScreen kinase assay kit, TR-FRET). On the technique in general: TR-FRET usually uses a lanthanide donor and a delayed reading to cut background.
A further test concerns A375 cells. The test can be described thus: Cell proliferation assay (CellTiter-Glo), A375 cells. To be noted: Homo sapiens, A-375, 72 h, 3-day treatment, vs vehicle control (1% DMSO), read-out: A375 cell growth IC50. The test is classed as cell-based. Here is the method:
Cell Proliferation Assay:
A375, Colo-205, Calu-6, and SW-480 cells were purchased from American Type Culture Collection (USA). All cells were cultured in the recommended medium and serum concentration. Cells were maintained at 37° C. in a humidified atmosphere with 5% CO2. For cell proliferation assay, cells were seeded in 96-well pates at a density of 1,000 to 5,000 cells per well and cultured overnight at 37° C. in medium supplemented with 5-10% FBS. On the next day, the test articles at various concentrations or vehicle control (1% DMSO) were added into cell culture. After 3-day treatment, the growth of cells was assayed by the CellTiter-Glo® Luminestceaent Cell Viability Assay (Promega).

Structures are written as SMILES. pIC50: −log10 of the molar value.

Sequence of BRAF^V600E (P15056 whole entry V600E): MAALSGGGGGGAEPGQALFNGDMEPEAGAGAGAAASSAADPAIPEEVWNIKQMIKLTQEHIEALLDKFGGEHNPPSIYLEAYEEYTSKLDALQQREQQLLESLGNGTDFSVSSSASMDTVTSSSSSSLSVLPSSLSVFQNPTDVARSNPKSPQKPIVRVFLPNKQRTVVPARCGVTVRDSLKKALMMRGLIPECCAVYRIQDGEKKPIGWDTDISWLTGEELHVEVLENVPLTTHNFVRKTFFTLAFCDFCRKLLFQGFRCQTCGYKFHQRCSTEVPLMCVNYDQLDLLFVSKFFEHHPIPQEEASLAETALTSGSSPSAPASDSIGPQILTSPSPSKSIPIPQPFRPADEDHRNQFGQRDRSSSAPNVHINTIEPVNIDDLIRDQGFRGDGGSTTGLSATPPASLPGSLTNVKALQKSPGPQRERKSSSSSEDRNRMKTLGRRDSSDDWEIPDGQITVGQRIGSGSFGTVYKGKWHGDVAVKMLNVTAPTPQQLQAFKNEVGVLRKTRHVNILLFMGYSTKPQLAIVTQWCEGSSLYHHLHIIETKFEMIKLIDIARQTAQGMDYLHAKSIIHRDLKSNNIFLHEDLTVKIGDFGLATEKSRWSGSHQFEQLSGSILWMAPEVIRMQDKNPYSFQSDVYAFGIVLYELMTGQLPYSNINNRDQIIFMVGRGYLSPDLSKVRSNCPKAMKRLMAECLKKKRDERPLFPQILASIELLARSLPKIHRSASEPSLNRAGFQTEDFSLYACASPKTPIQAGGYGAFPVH
Experimental for BRAF^V600E: The assay was conducted according to the procedure provided in the assay kit. […] The final reaction volume for each reaction was 10 μl. The reaction was stopped by addition of 10 μl of TR-FRET dilution buffer supplemented with kinase quench buffer (10 mM EDTA final) and Tb-anti-pMAP2K1 (2 nM final). […] IC50 value was calculated using appropriate programs in GraphPad Prism by plotting the logarithm of the concentration versus percent inhibition.

As for `CCCS(=O)(=O)Nc1ccc(F)c(-c2ccc3cc(N)ncc3c2)c1F` [Example 1, N-(3-(3-aminoisoquinolin-7-yl)-2,4-difluorophenyl)propane-1-sulfonamide], the figures for the pIC50 against BRAF^V600E and in the test on A375 cells were 5.06 and 6.99, respectively.

For the compound `CCCS(=O)(=O)Nc1ccc(F)c(-c2ccc3cc(NC[C@H](C)NC(=O)OC)ncc3c2)c1F` [Example 2, (S)-methyl-1-(7-(2,6-difluoro-3-(propylsulfonamido)phenyl)isoquinolin-3-ylamino)propan-2-ylcarbamate], the pIC50 with A375 cells is 6.11. Take `CCCS(=O)(=O)Nc1ccc(F)c(-c2cc3cnc(N)cc3cc2OC)c1F` [Example 3, N-(3-(3-amino-6-methoxyisoquinolin-7-yl)-2,4-difluorophenyl)propane-1-sulfonamide]: the pIC50 on BRAF^V600E is 6.10; in the test with A375 cells it was 6.00.

Turning to `CCCS(=O)(=O)Nc1ccc(F)c(-c2cc3cnc(NC[C@H](C)NC(=O)OC)cc3cc2OC)c1F` [Example 4, methyl N-[(1S)-2-[[7-[2,6-difluoro-3-(propylsulfonylamino)phenyl]-6-methoxy-3-isoquinolyl]amino]-1-methyl-ethyl]carbamate], the values for the pIC50 at BRAF^V600E and in the test with A375 cells were 6.67 and 7.72, respectively. `CCCS(=O)(=O)Nc1ccc(F)c(-c2cc3cnc(NC[C@@H](C)NC(=O)OC)cc3cc2OC)c1F` [Example 5, methyl N-[(1R)-2-[[7-[2,6-difluoro-3-(propylsulfonylamino)phenyl]-6-methoxy-3-isoquinolyl]amino]-1-methyl-ethyl]carbamate]: the pIC50 against BRAF^V600E was 5.44; with A375 cells, 6.14.

On to `CCCS(=O)(=O)Nc1ccc(F)c(-c2cc3cnc(NC[C@H](C)NC(=O)OC)cc3cc2OCCF)c1F` [Example 6, methyl N-[(1S)-2-[[7-[2,6-difluoro-3-(propylsulfonylamino)phenyl]-6-(2-fluoroethoxy)-3-isoquinolyl]amino]-1-methyl-ethyl]carbamate], for which the results for the pIC50 against BRAF^V600E and in the test with A375 cells were 7.00 and 6.80, respectively. In the case of `CCCS(=O)(=O)Nc1ccc(F)c(-c2cc3cnc(NC[C@H](C)NC(=O)OC)cc3cc2CC)c1F` [Example 7, methyl N-[(1S)-2-[[7-[2,6-difluoro-3-(propylsulfonylamino)phenyl]-6-ethyl-3-isoquinolyl]amino]-1-methyl-ethyl]carbamate], the pIC50 at BRAF^V600E was 6.25; in the test with A375 cells it was 6.51. In the same order, the values of `CCCS(=O)(=O)Nc1ccc(F)c(-c2ccc3c(cnc4[nH]ncc43)c2)c1F` [Example 8, N-(2,4-difluoro-3-(3H-pyrazolo[3,4-c]isoquinolin-7-yl)phenyl)propane-1-sulfonamide] are 7.15 and 6.64.

For the compound `CCCS(=O)(=O)Nc1ccc(F)c(-c2ccc3c(cnc4[nH]nc(Br)c43)c2)c1F` [Example 9, N-(3-(1-bromo-3H-pyrazolo[3,4-c]isoquinolin-7-yl)-2,4-difluorophenyl)propane-1-sulfonamide], in the test with A375 cells, the negative-log IC50 (pIC50) is 6.84. Turning to `CCCS(=O)(=O)Nc1ccc(F)c(-c2ccc3c(cnc4[nH]nc(C5CC5)c43)c2)c1F` [Example 10, N-(3-(1-cyclopropyl-3H-pyrazolo[3,4-c]isoquinolin-7-yl)-2,4-difluorophenyl)propane-1-sulfonamide], the negative logarithm of the IC50 (pIC50) at BRAF^V600E is 5.57; with A375 cells, 6.84.

As to `CCCS(=O)(=O)Nc1ccc(F)c(-c2ccc3c(cnc4[nH]ncc43)c2)c1Cl` [Example 11, N-(2-chloro-4-fluoro-3-(3H-pyrazolo[3,4-c]isoquinolin-7-yl)phenyl)propane-1-sulfonamide], the pIC50 at BRAF^V600E is 7.74; with A375 cells it was 7.02. As for `CCCS(=O)(=O)Nc1ccc(F)c(-c2ccc3c(cnc4[nH]nc(Br)c43)c2)c1Cl` [Example 12, N-(3-(1-bromo-3H-pyrazolo[3,4-c]isoquinolin-7-yl)-2-chloro-4-fluorophenyl)propane-1-sulfonamide], in the test with A375 cells, the negative logarithm of the IC50 (pIC50) is 6.84.

As to `CCCS(=O)(=O)Nc1ccc(F)c(-c2ccc3c(cnc4[nH]nc(C5CC5)c43)c2)c1Cl` [Example 13, N-(2-chloro-3-(1-cyclopropyl-3H-pyrazolo[3,4-c]isoquinolin-7-yl)-4-fluorophenyl)propane-1-sulfonamide], the results for the negative logarithm of the IC50 (pIC50) against BRAF^V600E and with A375 cells were 7.70 and 7.19, respectively.

Consider `O=S(=O)(CCCF)Nc1ccc(F)c(-c2ccc3c(cnc4[nH]ncc43)c2)c1F` [Example 14, N-(2,4-difluoro-3-(3H-pyrazolo[3,4-c]isoquinolin-7-yl)phenyl)-3-fluoropropane-1-sulfonamide], for which the values for the negative-log IC50 (pIC50) at BRAF^V600E and in the test on A375 cells were 7.30 and 7.18, respectively.

For the compound `O=S(=O)(CCCF)Nc1ccc(F)c(-c2ccc3c(cnc4[nH]ncc43)c2)c1Cl` [Example 15, N-(2-chloro-4-fluoro-3-(3H-pyrazolo[3,4-c]isoquinolin-7-yl)phenyl)-3-fluoropropane-1-sulfonamide], the negative-log IC50 (pIC50) is 8.18 against BRAF^V600E and 7.64 in the test with A375 cells.

In the case of `CCCS(=O)(=O)Nc1ccc(Cl)c(-c2ccc3c(cnc4[nH]ncc43)c2)c1Cl` [Example 16, N-(2,4-dichloro-3-(3H-pyrazolo[3,4-c]isoquinolin-7-yl)phenyl)propane-1-sulfonamide], the negative-log IC50 (pIC50) on BRAF^V600E is 7.38; in the test with A375 cells, 6.47. On to `CCCS(=O)(=O)Nc1ccc(Cl)c(-c2ccc3c(cnc4[nH]ncc43)c2)c1F` [Example 17, N-(4-chloro-2-fluoro-3-(3H-pyrazolo[3,4-c]isoquinolin-7-yl)phenyl)propane-1-sulfonamide], for which the figures for the pIC50 against BRAF^V600E and with A375 cells were 6.93 and 6.88, respectively. In the same order, the values of `O=S1(=O)CCCN1c1ccc(F)c(-c2ccc3c(cnc4[nH]ncc43)c2)c1F` [Example 18, N-(2,4-difluoro-3-(3H-pyrazolo[3,4-c]isoquinolin-7-yl)phenyl)-1,3-propanesultam] are 5.43 and 6.00.

With `CCCS(=O)(=O)Nc1ccc(F)c(-c2cc3cnc4[nH]ncc4c3cc2OC)c1F` [Example 19, N-(2,4-difluoro-3-(8-methoxy-3H-pyrazolo[3,4-c]isoquinolin-7-yl)phenyl)propane-1-sulfonamide], the pIC50 against BRAF^V600E is 7.22; in the test on A375 cells, 7.11. In the same order, the values of `CCCS(=O)(=O)Nc1ccc(F)c(-c2cc3cnc4[nH]ncc4c3cc2OC)c1Cl` [Example 20, N-(2-chloro-4-fluoro-3-(8-methoxy-3H-pyrazolo[3,4-c]isoquinolin-7-yl)phenyl)propane-1-sulfonamide] are 8.00 and 7.33.

Take `COc1cc2c(cnc3[nH]ncc32)cc1-c1c(F)ccc(NS(=O)(=O)CCCF)c1F` [Example 21, N-(2,4-difluoro-3-(8-methoxy-3H-pyrazolo[3,4-c]isoquinolin-7-yl)phenyl)-3-fluoropropane-1-sulfonamide]: the pIC50 at BRAF^V600E was 7.15; in the test on A375 cells it was 7.03. For the compound `COc1cc2c(cnc3[nH]ncc32)cc1-c1c(F)ccc(NS(=O)(=O)CCCF)c1Cl` [Example 22, N-(2-chloro-4-fluoro-3-(8-methoxy-3H-pyrazolo[3,4-c]isoquinolin-7-yl)phenyl)-3-fluoropropane-1-sulfonamide], the negative logarithm of the IC50 (pIC50) on BRAF^V600E was 7.92; with A375 cells, 7.18. For the compound `CCCS(=O)(=O)Nc1ccc(F)c(-c2cc3cnc4[nH]nc(C5CC5)c4c3cc2OC)c1F` [Example 23, N-(3-(1-cyclopropyl-8-methoxy-3H-pyrazolo[3,4-c]isoquinolin-7-yl)-2,4-difluorophenyl)propane-1-sulfonamide], the pIC50 in the test with A375 cells was 7.00. Still for that read-out and setting: the figure for `CCCS(=O)(=O)Nc1ccc(F)c(-c2cc3cnc4[nH]nc(C5CC5)c4c3cc2OC)c1Cl` [Example 24, N-(2-chloro-3-(1-cyclopropyl-8-methoxy-3H-pyrazolo[3,4-c]isoquinolin-7-yl)-4-fluorophenyl)propane-1-sulfonamide] is 6.55; for `COc1cc2c(cnc3[nH]nc(C4CC4)c32)cc1-c1c(F)ccc(NS(=O)(=O)CCCF)c1Cl` [Example 25, N-(2-chloro-3-(1-cyclopropyl-8-methoxy-3H-pyrazolo[3,4-c]isoquinolin-7-yl)-4-fluorophenyl)-3-fluoropropane-1-sulfonamide] it is 7.60.

For `COc1cc2c(cnc3[nH]nc(C4CC4)c32)cc1-c1c(F)ccc(NS(=O)(=O)CCCF)c1F` [Example 26, N-(3-(1-cyclopropyl-8-methoxy-3H-pyrazolo[3,4-c]isoquinolin-7-yl)-2,4-difluorophenyl)-3-fluoropropane-1-sulfonamide], the pIC50 at BRAF^V600E was 7.31; in the test with A375 cells it was 7.53. In the same order, the values of `CCCS(=O)(=O)Nc1ccc(F)c(-c2ccc3c(cnc4[nH]ccc43)c2)c1F` [Example 27, N-(2,4-difluoro-3-(3H-pyrrolo[2,3-c]isoquinolin-7-yl)phenyl)propane-1-sulfonamide] are 6.16 and 6.00. In the same order, the values of `CCCS(=O)(=O)Nc1ccc(F)c(-c2ccc3c(cnc4[nH]cnc43)c2)c1F` [Example 28, N-(2,4-difluoro-3-(3H-imidazo[4,5-c]isoquinolin-7-yl)phenyl)propane-1-sulfonamide] are 6.41 and 6.51.

A word on the pIC50: it is the negative decadic logarithm of the IC50, by convention in mol/L.
